molecular target: Genome polyprotein (Hepatitis C virus genotype 1a (isolate H77), UniProt P27958); test: Continuous Spectrophotometric Assay; settings: pH 6.5; 30 °C
Protocol: Proteolytic cleavage of the ester linkage between the Nva (L-norvaline) and the chromophore (PAP) was monitored for change in absorbance at 370 nm. Initial velocities were determined using linear regression and kinetic constants were obtained by fitting the data to the Michaelis-Menten equation.

Genome polyprotein, sequence (P27958 1027-1657 limits assumed): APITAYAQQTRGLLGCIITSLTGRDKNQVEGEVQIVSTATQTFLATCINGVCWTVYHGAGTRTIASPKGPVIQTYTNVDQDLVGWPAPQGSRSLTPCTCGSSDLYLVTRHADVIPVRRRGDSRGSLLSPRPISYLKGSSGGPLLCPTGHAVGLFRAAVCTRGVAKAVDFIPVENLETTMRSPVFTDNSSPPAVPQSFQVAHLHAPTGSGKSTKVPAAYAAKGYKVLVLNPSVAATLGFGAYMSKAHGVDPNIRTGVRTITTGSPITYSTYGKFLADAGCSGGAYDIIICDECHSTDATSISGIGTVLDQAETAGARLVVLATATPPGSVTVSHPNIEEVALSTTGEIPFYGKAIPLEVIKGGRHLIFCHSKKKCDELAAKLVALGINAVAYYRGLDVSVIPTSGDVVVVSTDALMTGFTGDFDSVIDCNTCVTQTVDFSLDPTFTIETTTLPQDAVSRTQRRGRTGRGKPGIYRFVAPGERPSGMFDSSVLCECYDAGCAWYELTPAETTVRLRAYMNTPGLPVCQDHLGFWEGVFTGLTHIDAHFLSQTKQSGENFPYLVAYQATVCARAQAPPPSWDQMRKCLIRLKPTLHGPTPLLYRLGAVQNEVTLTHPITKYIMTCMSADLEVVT

Compound	Ki
C=CCOC(=O)CNC(=O)C(=O)C(CCC)NC(=O)[C@@H]1CN(Cc2ccccc2)C(=O)N1C(=O)[C@@H](NC(=O)[C@@H](NC(=O)[C@H](CCC(=O)OC(C)(C)C)NC(=O)[C@H](CCC(=O)OC(C)(C)C)NC(C)=O)C(C)C)C(C)C (stereo partly drawn) [tert-butyl (4S)-4-{[(1S)-1-{[(1S)-1-{[(2S)-1-[(5S)-3-benzyl-2-oxo-5-[(1-oxo-1-{[2-oxo-2-(prop-2-en-1-yloxy)ethyl]carbamoyl}pentan-2-yl)carbamoyl]imidazolidin-1-yl]-3-methyl-1-oxobutan-2-yl]carbamoyl}-2-methylpropyl]carbamoyl}-4-(tert-butoxy)-4-oxobutyl]carbamoyl}-4-acetamidobutanoate]	> 100 µM
C=CCOC(=O)CNC(=O)C(=O)C(CCC)NC(=O)[C@@H]1CN(Cc2ccc(Cl)c(Cl)c2)C(=O)N1C(=O)[C@@H](NC(=O)[C@@H](NC(=O)[C@H](CCC(=O)O)NC(=O)[C@H](CCC(=O)O)NC(C)=O)C(C)C)C(C)C (stereo partly drawn) [(4S)-4-{[(1S)-3-carboxy-1-{[(1S)-1-{[(2S)-1-[(5S)-3-[(3,4-dichlorophenyl)methyl]-2-oxo-5-[(1-oxo-1-{[2-oxo-2-(prop-2-en-1-yloxy)ethyl]carbamoyl}pentan-2-yl)carbamoyl]imidazolidin-1-yl]-3-methyl-1-oxobutan-2-yl]carbamoyl}-2-methylpropyl]carbamoyl}propyl]carbamoyl}-4-acetamidobutanoic acid]	0.31 µM
C=CCNC(=O)C(=O)C(CCC)NC(=O)[C@@H]1CN(Cc2ccccc2)C(=O)N1C(=O)[C@@H](NC(=O)[C@@H](NC(=O)[C@H](CCC(=O)O)NC(=O)[C@H](CCC(=O)O)NC(C)=O)C(C)C)C(C)C (stereo partly drawn) [(4S)-4-{[(1S)-1-{[(1S)-1-{[(2S)-1-[(5S)-3-benzyl-2-oxo-5-{[1-oxo-1-(prop-2-en-1-ylcarbamoyl)pentan-2-yl]carbamoyl}imidazolidin-1-yl]-3-methyl-1-oxobutan-2-yl]carbamoyl}-2-methylpropyl]carbamoyl}-3-carboxypropyl]carbamoyl}-4-acetamidobutanoic acid]	1 µM
C=CCNC(=O)C(=O)C(CCC)NC(=O)[C@@H]1CNC(=O)N1C(=O)[C@@H](NC(=O)[C@@H](NC(=O)[C@H](CCC(=O)OC(C)(C)C)NC(=O)[C@H](CCC(=O)OC(C)(C)C)NC(C)=O)C(C)C)C(C)C (stereo partly drawn) [tert-butyl (4S)-4-{[(1S)-4-(tert-butoxy)-1-{[(1S)-2-methyl-1-{[(2S)-3-methyl-1-oxo-1-[(5S)-2-oxo-5-{[1-oxo-1-(prop-2-en-1-ylcarbamoyl)pentan-2-yl]carbamoyl}imidazolidin-1-yl]butan-2-yl]carbamoyl}propyl]carbamoyl}-4-oxobutyl]carbamoyl}-4-acetamidobutanoate]	69 µM
C=CCOC(=O)CNC(=O)C(=O)C(CCC)NC(=O)[C@@H]1CN(Cc2ccccc2)C(=O)N1C(=O)[C@@H](NC(=O)[C@@H](NC(=O)[C@H](CCC(=O)O)NC(=O)[C@H](CCC(=O)O)NC(C)=O)C(C)C)C(C)C (stereo partly drawn) [(4S)-4-{[(1S)-1-{[(1S)-1-{[(2S)-1-[(5S)-3-benzyl-2-oxo-5-[(1-oxo-1-{[2-oxo-2-(prop-2-en-1-yloxy)ethyl]carbamoyl}pentan-2-yl)carbamoyl]imidazolidin-1-yl]-3-methyl-1-oxobutan-2-yl]carbamoyl}-2-methylpropyl]carbamoyl}-3-carboxypropyl]carbamoyl}-4-acetamidobutanoic acid]	1 µM
C=CCNC(=O)C(=O)C(CCC)NC(=O)[C@@H]1CN(CC(=O)OCC)C(=O)N1C(=O)[C@@H](NC(=O)[C@@H](NC(=O)[C@H](CCC(=O)O)NC(=O)[C@H](CCC(=O)O)NC(C)=O)C(C)C)C(C)C (stereo partly drawn) [(4S)-4-{[(1S)-3-carboxy-1-{[(1S)-1-{[(2S)-1-[(5S)-3-(2-ethoxy-2-oxoethyl)-2-oxo-5-{[1-oxo-1-(prop-2-en-1-ylcarbamoyl)pentan-2-yl]carbamoyl}imidazolidin-1-yl]-3-methyl-1-oxobutan-2-yl]carbamoyl}-2-methylpropyl]carbamoyl}propyl]carbamoyl}-4-acetamidobutanoic acid]	4 µM
C=CCNC(=O)C(=O)C(CCC)NC(=O)[C@@H]1CNC(=O)N1C(=O)[C@@H](NC(=O)[C@@H](NC(=O)[C@H](CCC(=O)O)NC(=O)[C@H](CCC(=O)O)NC(C)=O)C(C)C)C(C)C (stereo partly drawn) [(4S)-4-{[(1S)-3-carboxy-1-{[(1S)-2-methyl-1-{[(2S)-3-methyl-1-oxo-1-[(5S)-2-oxo-5-{[1-oxo-1-(prop-2-en-1-ylcarbamoyl)pentan-2-yl]carbamoyl}imidazolidin-1-yl]butan-2-yl]carbamoyl}propyl]carbamoyl}propyl]carbamoyl}-4-acetamidobutanoic acid]	46 µM
C=CCNC(=O)C(=O)C(CCC)NC(=O)[C@@H]1CN(Cc2ccccc2)C(=O)N1C(=O)[C@@H](NC(=O)[C@@H](NC(=O)[C@H](CCC(=O)OC(C)(C)C)NC(=O)[C@H](CCC(=O)OC(C)(C)C)NC(C)=O)C(C)C)C(C)C (stereo partly drawn) [tert-butyl (4S)-4-{[(1S)-1-{[(1S)-1-{[(2S)-1-[(5S)-3-benzyl-2-oxo-5-{[1-oxo-1-(prop-2-en-1-ylcarbamoyl)pentan-2-yl]carbamoyl}imidazolidin-1-yl]-3-methyl-1-oxobutan-2-yl]carbamoyl}-2-methylpropyl]carbamoyl}-4-(tert-butoxy)-4-oxobutyl]carbamoyl}-4-acetamidobutanoate]	61 µM
C=CCNC(=O)C(=O)C(CCC)NC(=O)[C@@H]1CN(CC(=O)OCC)C(=O)N1C(=O)[C@@H](NC(=O)[C@@H](NC(=O)OCC(C)C)C(C)C)C(C)C (stereo partly drawn) [ethyl 2-[(4S)-3-[(2S)-3-methyl-2-[(2S)-3-methyl-2-{[(2-methylpropoxy)carbonyl]amino}butanamido]butanoyl]-2-oxo-4-{[1-oxo-1-(prop-2-en-1-ylcarbamoyl)pentan-2-yl]carbamoyl}imidazolidin-1-yl]acetate]	78 µM
C=CCNC(=O)C(=O)C(CCC)NC(=O)[C@@H]1CN(CC(=O)OCC)C(=O)N1C(=O)[C@@H](NC(=O)[C@@H](NC(=O)[C@H](CCC(=O)OC(C)(C)C)NC(=O)[C@H](CCC(=O)OC(C)(C)C)NC(C)=O)C(C)C)C(C)C (stereo partly drawn) [tert-butyl (4S)-4-{[(1S)-4-(tert-butoxy)-1-{[(1S)-1-{[(2S)-1-[(5S)-3-(2-ethoxy-2-oxoethyl)-2-oxo-5-{[1-oxo-1-(prop-2-en-1-ylcarbamoyl)pentan-2-yl]carbamoyl}imidazolidin-1-yl]-3-methyl-1-oxobutan-2-yl]carbamoyl}-2-methylpropyl]carbamoyl}-4-oxobutyl]carbamoyl}-4-acetamidobutanoate]	30 µM
C=CCOC(=O)CNC(=O)C(=O)C(CCC)NC(=O)[C@@H]1CN(Cc2ccc(Cl)c(Cl)c2)C(=O)N1C(=O)[C@@H](NC(=O)[C@@H](NC(=O)[C@H](CCC(=O)OC(C)(C)C)NC(=O)[C@H](CCC(=O)OC(C)(C)C)NC(C)=O)C(C)C)C(C)C (stereo partly drawn) [tert-butyl (4S)-4-{[(1S)-4-(tert-butoxy)-1-{[(1S)-1-{[(2S)-1-[(5S)-3-[(3,4-dichlorophenyl)methyl]-2-oxo-5-[(1-oxo-1-{[2-oxo-2-(prop-2-en-1-yloxy)ethyl]carbamoyl}pentan-2-yl)carbamoyl]imidazolidin-1-yl]-3-methyl-1-oxobutan-2-yl]carbamoyl}-2-methylpropyl]carbamoyl}-4-oxobutyl]carbamoyl}-4-acetamidobutanoate]	> 100 µM

From BindingDB's records for doi:10.1016/j.bmcl.2004.09.058 (Schering-Plough Research Institute, 2004)
